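Five concentrations, 48 hours, 96-well plates. GI50 marks 50% less growth.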 Active and inactive are the calls of the source. No stated cut-off is given here; in the data, active = GI50 up to about 1.1 µM and inactive = higher.
Assays:
Experiment in all cases: DTP human tumour cell line panel, 48 h
RXF 631 = system: RXF 631
LXFL 529 = system: LXFL 529
HOP-18 = system: HOP-18
XF498 = system: XF498
MDA-N = system: MDA-N
MDA-MB-435 = system: MDA-MB-435
PC-3 = system: PC-3
T47D = system: T47D
Hs-578T = system: Hs-578T

| Compound | GI50 (RXF 631) | GI50 (LXFL 529) | GI50 (HOP-18) | GI50 (XF498) | GI50 (MDA-N) | GI50 (MDA-MB-435) | GI50 (PC-3) | GI50 (T47D) | GI50 (Hs-578T) |
| --- | --- | --- | --- | --- | --- | --- | --- | --- | --- |
| CCOC(=O)C1CCn2c(nc3c(=O)n(C)c(=O)n(C)c32)S1 (configuration not stated) | > 100 µM (inactive) | > 100 µM (inactive) | > 100 µM (inactive) | – | – | – | – | – | – |
| O=C(O)CCCCCCC[C@H]1S[C@H]1CCCCCCO | – | – | > 100 µM (inactive) | > 100 µM (inactive) | – | – | – | – | – |
| O=C(CC1(O)C(=O)Nc2c(Cl)cc(Cl)cc21)c1ccco1 (configuration not stated) | – | 37.8 µM (inactive) | 55.7 µM (inactive) | 25.1 µM (inactive) | – | – | – | – | – |
| COc1ccc(/C=C(\C2=NC(=O)CS2)c2nc3ccccc3[nH]2)cc1 | – | 60.7 µM (inactive) | – | 14.5 µM (inactive) | – | – | – | – | – |
| COc1cc(C2c3cc4c(cc3[C@@H](Oc3ccc(F)cc3)C3COC(=O)[C@H]23)OCO4)cc(OC)c1O (some centres not stated) | – | – | 87.1 µM (inactive) | – | – | – | – | – | – |
| COC(=O)N1C=Cc2c(c(C)c3c([nH]c4ccccc43)c2C)C1C (configuration not stated) | 16.4 µM (inactive) | 22.2 µM (inactive) | – | 17.7 µM (inactive) | – | – | – | – | – |
| O=C(CC1=NCCN1)c1ccccc1 | – | – | > 649 µM (inactive) | > 750 µM (inactive) | – | – | – | – | – |
| COC(C(O)c1ccc2c(c1)OCO2)P(=O)(c1ccccc1)c1ccccc1 (configuration not stated) | – | – | – | > 100 µM (inactive) | – | – | – | – | – |
| S=c1c2nc[nH]c2ncn1CCSC1=NC=NC2=NC=NC21 (configuration not stated) | – | – | > 100 µM (inactive) | > 100 µM (inactive) | 61.7 µM (inactive) | 53.5 µM (inactive) | > 100 µM (inactive) | > 94.2 µM (inactive) | > 100 µM (inactive) |
| O=C1NC2CCCCCC2C12CCCCC2 (configuration not stated) | > 100 µM (inactive) | > 100 µM (inactive) | – | > 100 µM (inactive) | – | – | – | – | – |
| CNC(=O)C(C)C1CCC2(C)C=CC(=O)C(C)=C2C1O (configuration not stated) | – | – | – | > 100 µM (inactive) | – | – | – | – | – |
| CC(C)CC(N/C=C1/N=C(c2ccccc2)OC1=O)C(=O)O (configuration not stated) | > 100 µM (inactive) | – | – | – | – | – | – | – | – |
| CC1=NN(C(=O)c2ccccc2O)C(=O)/C1=C/c1ccc(O)cc1 | – | 0.141 µM (active) | – | – | 0.316 µM (active) | – | 0.368 µM (active) | 4.03 µM (inactive) | – |
| CN1c2ccccc2N(C(=O)c2ccc([N+](=O)[O-])cc2)C(CC(=O)O)c2cccn21 (configuration not stated) | – | > 100 µM (inactive) | – | > 100 µM (inactive) | – | – | – | – | – |
| CCCCCCCCCCCC(=O)C1=C(O)CCC(O)C1=O (configuration not stated) | – | 16.6 µM (inactive) | 25.5 µM (inactive) | 10.7 µM (inactive) | – | – | – | – | – |
| COC1O[C@H]2CCN(C(=O)OCc3ccccc3)[C@H]2[C@H]1OCc1ccccc1 (some centres not stated) | – | 40.2 µM (inactive) | > 100 µM (inactive) | 35.2 µM (inactive) | – | – | – | – | – |
| CN(C)CCNC(=O)c1cccc2c1nc(-c1cccnc1)c1ccccc12 | 1.96 µM (inactive) | – | 21.6 µM (inactive) | – | – | – | – | – | – |
| CN(C)CCNC(=O)c1cccc2cc3cc(O)ccc3nc12 | – | – | 1.32 µM (inactive) | 0.916 µM (active) | – | – | – | – | – |

| Compound | GI50 (RXF 631) | GI50 (LXFL 529) | GI50 (HOP-18) | GI50 (XF498) | GI50 (MDA-N) | GI50 (MDA-MB-435) | GI50 (PC-3) | GI50 (T47D) | GI50 (Hs-578T) |
| --- | --- | --- | --- | --- | --- | --- | --- | --- | --- |
| CC1(O)C=CC(=O)C=C1 | – | 13.3 µM (inactive) | 58.2 µM (inactive) | 29.1 µM (inactive) | – | – | – | – | – |
| Cn1c2ccccc2c2ccc3c(c21)C(=O)C(c1ccccc1)=CC3=O | – | 16.1 µM (inactive) | 0.0957 µM (active) | – | – | – | – | – | – |
| CS(=O)(=O)N/N=C/CN1C(=O)c2ccccc2C1=O | – | > 100 µM (inactive) | > 100 µM (inactive) | > 100 µM (inactive) | – | – | – | – | – |
| CCOc1cc(C=O)ccc1O [ETHYL VANILLIN] | – | – | – | – | > 100 µM (inactive) | > 100 µM (inactive) | > 100 µM (inactive) | > 100 µM (inactive) | > 100 µM (inactive) |
| CC(C)(C)OC(=O)NC(CSSCC(NC(=O)OC(C)(C)C)C(=O)O)C(=O)O (configuration not stated) | – | – | – | – | > 100 µM (inactive) | > 100 µM (inactive) | > 100 µM (inactive) | > 100 µM (inactive) | > 100 µM (inactive) |
| CCOC(=O)/C=C(\C(=O)OCC)n1ccc(=O)n(Cc2cnnn2CCCCOC(C)=O)c1=O | – | – | – | – | 22.5 µM (inactive) | 6.85 µM (inactive) | 9.4 µM (inactive) | 4.07 µM (inactive) | 16.3 µM (inactive) |
| CCN(CC)CCNC(=O)c1cc2cc(NC(=O)c3cc4cc(NC(=O)c5cc6cc(N)ccc6[nH]5)ccc4[nH]3)ccc2[nH]1 | – | – | – | – | > 100 µM (inactive) | > 100 µM (inactive) | > 100 µM (inactive) | > 100 µM (inactive) | > 100 µM (inactive) |
| CC1C(/C=C/c2ccoc2)ON2CCCC12 (configuration not stated) | – | > 100 µM (inactive) | > 100 µM (inactive) | – | – | – | – | – | – |
| Cc1ccc(S(=O)(=O)N/N=C(/c2nc3ccc([N+](=O)[O-])cc3nc2O)C(O)c2ccc(C(O)/C(=N\NS(=O)(=O)c3ccc(C)cc3)c3nc4ccc([N+](=O)[O-])cc4nc3O)cc2)cc1 (configuration not stated) | 56.5 µM (inactive) | 21.4 µM (inactive) | – | > 100 µM (inactive) | – | – | – | – | – |
| COC(=O)C#CCC1CCCC1C1SCCS1 (configuration not stated) | > 100 µM (inactive) | 70.1 µM (inactive) | > 100 µM (inactive) | 41 µM (inactive) | – | – | – | – | – |
| CC(=O)C1C(=O)C(=O)N(c2ccc(Cl)cc2C)C1=O (configuration not stated) | > 100 µM (inactive) | > 100 µM (inactive) | > 100 µM (inactive) | – | – | – | – | – | – |
| NC(CCCCNCc1ccccc1)C(=O)O (configuration not stated) | > 100 µM (inactive) | > 100 µM (inactive) | > 100 µM (inactive) | – | – | – | – | – | – |
| Fc1cccc(C2ON=C(c3ccccc3)N2C23CC4CC(CC(C4)C2)C3)c1 (configuration not stated) | – | – | – | – | > 10 µM (inactive) | > 10 µM (inactive) | > 10 µM (inactive) | > 10 µM (inactive) | > 10 µM (inactive) |
| CN(C)CN1C(=O)/C(=N\n2c(S)nnc2-c2ccncc2)c2ccccc21 | – | – | – | – | 16.7 µM (inactive) | 15.8 µM (inactive) | 35.6 µM (inactive) | 30.8 µM (inactive) | 42.5 µM (inactive) |
| Cc1ccc2nc(NC(=O)/C(Cc3nc4ccc(Cl)cc4nc3O)=N\NC(C)(C)C)sc2c1 | – | – | – | – | > 100 µM (inactive) | > 100 µM (inactive) | > 100 µM (inactive) | > 100 µM (inactive) | 18.2 µM (inactive) |
| COc1cc(C2C(C(=O)Nc3ccccc3C)=C(C)NC(C)=C2C(=O)Nc2ccccc2C)ccc1O | > 100 µM (inactive) | > 100 µM (inactive) | > 100 µM (inactive) | 87.5 µM (inactive) | – | – | – | – | – |
| CCCCCCCCCCCCCCCCP(=O)([O-])OCC[N+](C)(C)C | – | – | – | – | 15.4 µM (inactive) | 17.3 µM (inactive) | 1.71 µM (inactive) | 17.6 µM (inactive) | 15.8 µM (inactive) |
| O=C1O/C(=C\c2ccc(O)cc2)C(c2ccc(O)c(Cl)c2)=C1Br | – | – | – | – | 8.57 µM (inactive) | 15.7 µM (inactive) | 6.47 µM (inactive) | 17.7 µM (inactive) | 11.6 µM (inactive) |

Source: ChEMBL document CHEMBL1201862, “PubChem BioAssay data set” (2004)
